Here are results for 13 compounds from patent US5703089A, “Dihydrodibenzisoquinolinediones” (Knoll Aktiengesellschaft, priority 1996, dated 1997).

pIC50: −log10 of the molar value. “And” between values parts separate entries of the source, which are not always exact repeats. Equal values may be shown once. Where a name gives a salt, the structure may show the parent alone.

The subject of assay [1] is HT-29 colon carcinoma cells. Put plainly: Inhibition of HT-29 tumor cell proliferation (MTT cytotoxicity, 72 h). The class given is cell-based. The note with it: HT-29, 72 h. As for the experimental part: Cytotoxicity may be measured using standard methodology for adherent cell lines such as the microculture tetrazolium assay (MTT). Details of this assay have been published Cancer Research 48:589-601, 1988). Exponentially growing cultures of tumor cells such as the HT-29 colon carcinoma or LX-1 lung tumor are used to make microtiter plate cultures. Cells are seeded at 5000-20,000 cells per well in 96-well plates (in 150 μl of media), and grown overnight at 37° C. Test compounds are added, in dilutions varying from 10^-4 M to 10^-10 M. The cells are then incubated for 48-72 hours. To determine the number of viable cells in each well, the MTT dye is added (50 μl of 3 mg/ml solution of 3-(4,5-dimethylthiazol-2-yl)-2,5-diphenyltetrazolium bromide in saline). This mixture is incubated at 37° C. for 5 hours, and then 50 μl of 25% strength SDS (pH 2) is added to each well. After overnight incubation, the absorbance of each well at 550 nm is read using an ELISA reader. The values for the mean +/- SD of data from quadruplicate wells are calculated, using the formula % T/C (% cells treated/control). [formula]
The concentration of test compound which gives a T/C of 50% growth inhibition is designated as the IC50.
Inhibition of HT-29 tumor cell proliferation^a.
^a Dihydrodibenzoquinolinedione cytotoxicity studies were performed a
follows: HT29 cells were seeded (5000) into each well of 96 well dishes.
After plating overmight a titration of dihydrodibenzoquinolinedione was
added giving a final volume of 200 ul. Following incubation for 72 h 50 u
of MTT (3 mg/ml) in PBS was added to each well and incubated for 5 hours
at 37° C. The reaction was stopped by the addition of 50 ul of 25%
SDS, pH 2. After an overnight incubation at 37° C. the absorbance,
due to metabolized MTT, was read with a plate reader at 550 nm.
Cytotoxicity was calculate as the well absorbance expressed as a
percentage on nondrug treated control. All estimates were made in
^b 10^-2 M stock solution made in 10% acetic acid then diluted in
^c 10^-2 M stock solution made in 10% DMSO then diluted in media.
^d 10^-4 M stock solution made in 10% acetic acid/10% DMSO then
^e 10^-2 M stock suspention made in DMSO then diluted in media to […]

In a further assay the test system is M5076 murine sarcoma. Nature of the assay: In vivo anti-tumor activity on M5076 murine sarcoma (survival). The arrangement: species or system C57BL/6 mice. The note with it: for % T/C: treated MST/control MST; for MST: treated on days 1.5 and 9. As for the experimental part: Compounds according to the invention may be further tested in any of the various preclinical assays for in vivo activity which are indicative of clinical utility. Such assays may be conducted with human tumors implanted in nude mice as xenografts or mouse tumors implanted in conventional mice in the strain of origin (syngeneic), as is well known in this field. Test compounds are evaluated for their antitumor efficacy following administration to the tumor-bearing mice.
More specifically, human tumors which have been grown in athymic nude mice or mouse tumors grown in their synergeneic host are transplanted into new recipient animals, using either tumor fragments which are about 50 mg in size or 1×10^6 cells harvested from ascites fluid. The day of transplantation is designated as day 0 and the host mice are subsequently injected intravenously or intraperitoneally with the test compounds, in group of 5 to 10 mice per dose level. The compounds are administered either as a single dose or on an intermittent or frequent dosing schedule at doses from 0.1 to 100 mg/kg body weight. Tumor size of solid tumors are measured by vernier calipers in two directions and the volume estimated by the formula: […]
Life span studies following i.p. administration of tumor cells are evaluated on the base of median survival time (MST). The MST of drug treated (T) mice are compared to the MST of control (C) mice and expressed as T/C percent. Compounds producing a T/C percent of >100% indicates some reduction in tumor burden. Values of 125 to 150% may be considered to reflect moderate activity, values of 150 to 200% good to excellent activity, and >200% outstanding activity.
In vivo anti-tumor activity of a Dihydrodibenzoquinolinedione analog on M5076 murine sarcoma^a.
^a C57BL/6 mice (6 per group) were inoculated with 10^6 M5076
cells on day 0. Mice were treated on days 1.5 and 9 with the
dimethanesulfonate salt of example 1 at the dose levels shown. Mice died
as a consequence of tumor burden with median survival times (MST) as
shown. In both studies meaningful antitumor activity was produce as
indicated by a treated MST/Control MST percentage (% T/C) being

Setting [2] is: 10^-2 M stock suspension made in DMSO then diluted in media to form a solution.
Where [3] appears, read: 10^-2 M stock solution made in 10% acetic acid then diluted in media.
Setting [4] is: Homo sapiens, 10^-2 M stock solution made in 10% acetic acid then diluted in media.
Setting [5] is: 10^-2 M stock solution made in 10% DMSO then diluted in media.
Setting [6] is: Homo sapiens, 10^-2 M stock solution made in 10% DMSO then diluted in media.
Where [7] appears, read: Homo sapiens, 10^-4 M stock solution made in 10% acetic acid/10% DMSO then diluted in media.

With `O=C1c2cccc3cc4c([N+](=O)[O-])cccc4c(c23)C(=O)N1CCNCCNCCN1C(=O)c2cccc3cc4c([N+](=O)[O-])cccc4c(c23)C1=O` [Example 13, N,N'-Bis-[2-(1,2-dihydro-8-nitro-1,3-dioxo-3H-dibenz[de,h]isoquinolin-2-yl)ethyl]1,3-ethylenediamine], the pIC50 in assay [1] (setting [2]) is 7.00 and 7.05.

Regarding `O=C1c2cccc3cc4ccccc4c(c23)C(=O)N1CCCNCCNCCCN1C(=O)c2cccc3cc4ccccc4c(c23)C1=O` [Example 10, N,N'-Bis[3-(1,2-dihydro-1,3-dioxo-3H-dibenz[de,h]isoquinolin-2-yl)propyl]-1,2-ethylenediamine], the pIC50 in assay [1] (setting [3]) is 7.05; in assay [1] (setting [4]), 7.00.

Take `O=C1c2cccc3cc4ccccc4c(c23)C(=O)N1CCNCCCNCCN1C(=O)c2cccc3cc4ccccc4c(c23)C1=O` [1 2 CH3 --SO3 H salt]: the “% T/C” value is on record as 154% in the assay on M5076 murine sarcoma (Experiment 1, 1.8 mg/kg); 123% in the assay on M5076 murine sarcoma (Experiment 1, 2.6 mg/kg); “toxic” with M5076 murine sarcoma (Experiment 1, 4 mg/kg); 128% in the assay with M5076 murine sarcoma (Experiment 2, 1.2 mg/kg); 98% with M5076 murine sarcoma (Experiment 2, 1.8 mg/kg); “toxic” with M5076 murine sarcoma (Experiment 2, 2.7 mg/kg). For the same compound, the MST is 30 in the assay with M5076 murine sarcoma (Experiment 1, 1.8 mg/kg, control MST 19.5); 24 in the assay with M5076 murine sarcoma (Experiment 1, 2.6 mg/kg, control MST 19.5); “toxic” in the assay on M5076 murine sarcoma (Experiment 1, 4 mg/kg, control MST 19.5); 30 in the assay with M5076 murine sarcoma (Experiment 2, 1.2 mg/kg, control MST 23.5); 23 in the assay with M5076 murine sarcoma (Experiment 2, 1.8 mg/kg, control MST 23.5); “toxic” with M5076 murine sarcoma (Experiment 2, 2.7 mg/kg, control MST 23.5). Further, the “treated MST/Control MST percentage (% T/C)” value with M5076 murine sarcoma (both studies, reproducibly, meaningful antitumor activity) is on record as “greater than 125%”. The pIC50 in assay [1] (setting [5]) was 7.70; in assay [1] (setting [6]), 8.00.

Turning to `O=C1c2cccc3cc4ccccc4c(c23)C(=O)N1CCNCCCNCCN1C(=O)c2cccc3cc4ccccc4c(c23)C1=O` [Example 1, N,N'-Bis[2-(1,2-dihydro-1,3-dioxo-3H-dibenz[de,h]isoquinoline-2-yl)ethyl]-1,3-propanediamine], the pIC50 was 8.30 in assay [1] (setting [3]) and 8.40 in assay [1] (setting [4]).

As to `O=C1c2cccc3cc4ccccc4c(c23)C(=O)N1CCCNCCCCNCCCN1C(=O)c2cccc3cc4ccccc4c(c23)C1=O` [Example 3, N,N'-Bis[3-(1,2-dihydro-1,3-dioxo-3H-dibenz[de,h]isoquinolin-2-yl)propyl]-1,4-butanediamine], in assay [1] (setting [4]), the pIC50 was 6.70.

As to `O=C1c2cccc3cc4ccccc4c(c23)C(=O)N1CCCCNCCCN1C(=O)c2cccc3cc4ccccc4c(c23)C1=O` [Example 4, [3-(1,2-dihydro-1,3-dioxo-3H-dibenz[de,h]isoquinolin-2-yl)propyl][4-(1,2-dihydro-1,3-dioxo-3,4-dibenz[de,h]isoquinolin-2-yl)butyl]amine], the figures for the pIC50 in assay [1] (10^-4 M stock solution made in 10% acetic acid/10% DMSO then diluted in media) and in assay [1] (setting [7]) were 7.30 and 7.05, respectively.

In turn, `O=C1c2cccc3cc4ccccc4c(c23)C(=O)N1CCNCCN1C(=O)c2cccc3cc4ccccc4c(c23)C1=O` [Example 9, Bis[2-(1,2-dihydro-1,3-dioxo-3H-dibenz[de,h]isoquinolin-2-yl)ethyl)amine] had a pIC50 in assay [1] (setting [7]) of 7.70.

Regarding `O=C1c2cccc3cc4ccccc4c(c23)C(=O)N1CCCNCCCNCCCN1C(=O)c2cccc3cc4ccccc4c(c23)C1=O` [Example 11, N,N'-Bis[3-(1,2-dihydro-1,3-dioxo-3H-dibenz[de,h]isoquinolin-2-yl)propyl]-1,3-propanediamine], the pIC50 in assay [1] (setting [3]) was 7.10; in assay [1] (setting [4]) it was 7.00.

With `O=C1c2cccc3cc4ccccc4c(c23)C(=O)N1CCNCCNCCN1C(=O)c2cccc3cc4ccccc4c(c23)C1=O` [Example 2, N,N'-Bis[2-(1,2-dihydro-1,3-dioxo-3H-dibenz[de,h]isoquinolin-2-yl)ethyl]-1,2-ethylenediamine], the pIC50 in assay [1] (setting [3]) is 8.10; in assay [1] (setting [4]), 8.00.

Consider `CN(CCN(C)CCN1C(=O)c2cccc3cc4ccccc4c(c23)C1=O)CCN1C(=O)c2cccc3cc4ccccc4c(c23)C1=O` [Example 14, N,N'-Bis[2-(1,2-dihydro-1,3-dioxo-3H-dibenz[de,h]isoquinolin-2-yl)ethyl]-N,N'-dimethyl-1,2-ethylenediamine], for which the pIC50 in assay [1] (setting [5]) was 7.10; in assay [1] (setting [6]), 7.15.

In assay [1] (setting [4]), `O=C1c2cccc3cc4ccccc4c(c23)C(=O)N1CCCNCCCN1C(=O)c2cccc3cc4ccccc4c(c23)C1=O` [Example 7, Bis[3-(1,2-dihydro-1,3-dioxo-3H-dibenz[de,h]isoquinolin-2-yl)propyl]amine] showed a pIC50 of 7.70.

Take `O=C1c2cccc3cc4c([N+](=O)[O-])cccc4c(c23)C(=O)N1CCNCCCNCCN1C(=O)c2cccc3cc4c([N+](=O)[O-])cccc4c(c23)C1=O` [Example 12, N,N'-Bis[2-(1,2-dihydro-8-nitro-1,3-dioxo-3H-dibenz[de,h]isoquinolin-2-yl)ethyl]-1,3-propanediamine]: the pIC50 is 7.40 in assay [1] (setting [2]) and 7.52 in assay [1] (Homo sapiens, 10^-2 M stock suspension made in DMSO then diluted in media to form a solution).

As for `O=C1c2cccc3cc4ccccc4c(c23)C(=O)N1CCNCCCCCNCCN1C(=O)c2cccc3cc4ccccc4c(c23)C1=O` [Example 15, N,N'-Bis[2-(1,2-dihydro-1,3-dioxo-3H-dibenz[de,h]isoquinolin-2-yl)ethyl]-1,5-pentanediamine], the pIC50 in assay [1] (setting [6]) is 8.10.

In general, pIC50 refers to −log10 of the IC50, conventionally taken in molar units.
